Assay results: patent US7868013B2, “Cycloalkyl substituted pyrimidinediamine compounds and their uses” (Rigel Pharmaceuticals, Inc., priority 2004, dated 2011)
pIC50: −log10 of the molar value. Where two headings read alike, the source gives them in different places.

Tests used:
A549 (lung carcinoma) = assay: In vitro antiproliferation assay, A549 cells (TABLE 1 6 point assay; TABLE 2); type: cell-based; conditions: Homo sapiens
Method: (§1) Certain compounds were tested against other cell types for their ability to inhibit proliferation in standard antiproliferation assays.

[1] = tested on: H1299 (non-small cell lung carcinoma); assay: In vitro antiproliferation assay, H1299 cells (TABLE 1 6 point assay; TABLE 2); type: cell-based; conditions: Homo sapiens
Method: as §1

[2] = A549, 6 point assay, A549 cells, read-out: IC50, A549 cells
[3] = NCI-H1299, 6 point assay, H1299 cells, read-out: IC50, H1299 cells
[4] = A549, A549 cells, 6 point assay, read-out: A549, 6pt (IC50, inhibition of proliferation)
[5] = NCI-H1299, H1299 cells, 6 point assay, read-out: H1299, 6pt (IC50, inhibition of proliferation)

Structure (SMILES) | pIC50 (A549 (lung carcinoma); [2]) | pIC50 [1, 3] | pIC50 (A549 (lung carcinoma); [4]) | pIC50 [1, 5]
CN1CCN(C(=O)Cc2ccc(Nc3ncc(F)c(N[C@H]4CCC[C@H]4C(N)=O)n3)cc2)CC1 (racemic) [compound 279, Racemic-cis-N4-(2-aminocarbonylcyclopent-1-yl)-5-fluoro-N2-{4-[(4-methylpiperazin-1-yl)-ethan-1-one-2-yl]phenyl}-2,4-pyrimidinediamine] | 5.00 to 6.00 | 5.00 to 6.00 | – | –
Cc1ccc(Nc2ncc(F)c(N[C@H]3[C@@H](C(N)=O)[C@@H]4C=C[C@H]3C4)n2)cc1OCC(=O)N1CCOCC1 [compound 125, (1R,2R,3S,4S)-N4-(3-Aminocarbonylbicyclo[2.2.1]hept-5-en-2-yl)-5-fluoro-N2-[4-methyl-3-(morpholin-4-ylcarbonylmethyleneoxy)phenyl]-2,4-pyrimidinediamine] | – | – | ≥ 7.00 | ≥ 7.00
Cc1cc(Nc2ncc(F)c(NC3C4C=CC(C4)C3C(N)=O)n2)cc(C)c1N1CCN(C)CC1 (racemic) [compound 271, Racemic-(2-exo,3-exo)-N4-(3-aminocarbonylbicyclo[2.2.1]hept-5-en-2-yl)-N2-[3,5-dimethyl-4-(4-methylpiperazin-1-yl)phenyl]-5-fluoro-2,4-pyrimidinediamine] | 5.00 to 6.00 | 5.00 to 6.00 | – | –
Cc1cc(Nc2ncc(F)c(N[C@@H]3[C@H](C(=O)NC4CCC4)[C@H]4C=C[C@@H]3C4)n2)ccc1N1CCN(C)CC1 [compound 193, (1S,2S,3R,4R)-N4-[3-(N-Cyclobutyl)aminocarbonylbicyclo[2.2.1]hept-5-en-2-yl]-5-fluoro-N2-[3-methyl-4-(4-methylpiperazin-1-yl)phenyl]-2,4-pyrimidinediamine] | < 5.00 | 5.00 to 6.00 | – | –
CN1CCC(c2ccc(Nc3ncc(F)c(N[C@H]4[C@@H](C(N)=O)[C@@H]5C=C[C@H]4C5)n3)cc2)CC1 [compound 137, (1R,2R,3S,4S)-N4-(3-aminocarbonylbicyclo[2.2.1]hept-5-en-2-yl)-5-fluoro-N2-[4-(1-methylpiperidin-4-yl)phenyl]-2,4-pyrimidinediamine] | – | – | ≥ 7.00 | ≥ 7.00
CNC(=O)c1cc(Nc2ncc(F)c(NC3C4C=CC(C4)C3C(=O)OC)n2)ccc1N1CCN(C)CC1 (racemic) [compound 254, Racemic-(2-exo,3-exo)-5-fluoro-N4-(3-methoxycarbonylbicyclo [2.2.1]hept-5-en-2-yl)-N2-[3-methylaminocarbonyl-4-(4-methylpiperazin-1-yl)phenyl]-2,4-pyrimidinediamine] | 5.00 to 6.00 | 5.00 to 6.00 | – | –
COCc1cc(Nc2ncc(F)c(N[C@H]3CCC[C@H]3C(N)=O)n2)ccc1N1CCN(C)CC1 (racemic) [compound 216, Racemic-cis-N4-(2-aminocarbonylcyclopent-1-yl)-5-fluoro-N2-[4-(4-methylpiperazin-1-yl)-3-methoxymethylenephenyl]-2,4-pyrimidinediamine] | 6.00 to 7.00 | 6.00 to 7.00 | – | –
Cc1cc(Nc2ncc(F)c(N[C@H]3[C@@H](C(N)=O)[C@@H]4C=C[C@H]3C4)n2)ccc1N(C1CC1)C1CCN(C)CC1 [compound 123, (1R,2R,3S,4S)-N4-(3-Aminocarbonylbicyclo[2.2.1]hept-5-en-2-yl)-5-fluoro-N2-{4-[N-cyclopropyl-(1-methylpiperidin-4-yl)]-3-methylphenyl}-2,4-pyrimidinediamine] | – | – | ≥ 7.00 | ≥ 7.00
Cc1cc(Nc2ncc(F)c(NC3C4C=CC(C4)C3C(N)=O)n2)ccc1N1CCN(C2CCCCC2)CC1 (racemic) [compound 245, Racemic-(2-exo,3-exo)-N4-(3-aminocarbonylbicyclo[2.2.1]hept-5-en-2-yl)-N2-[4-(4-cyclohexylpiperazin-1-yl)-3-methylphenyl]-5-fluoro-2,4-pyrimidinediamine] | ≥ 7.00 | ≥ 7.00 | – | –
COC(=O)[C@H]1CC[C@@H](Nc2nc(Nc3ccc(N4CCN(C)CC4)c(C)c3)ncc2F)C1 [compound 214, (1R,3S)-N4-(3-Methoxycarbonylcyclopent-1-yl)-5-fluoro-N2-[3-methyl-4-(4-methylpiperazin-1-yl)phenyl]-2,4-pyrimidinediamine] | 5.00 to 6.00 | 5.00 to 6.00 | – | –
Cc1cc(Nc2ncc(F)c(N[C@@H]3CCC[C@H]3C(N)=O)n2)ccc1N1CCN(C)CC1 [15c, (1R,2R)—N4-(2-Aminocarbonylcyclopent-1-yl)-5-fluoro-N2-[4-(4-methylpiperazin-1-yl)-3-methylphenyl]-2,4-pyrimidinediamine] | 5.00 to 6.00 | 5.00 to 6.00 | – | –
CN1CCN(c2ccc(Nc3ncc(F)c(NC4CCCC4C(N)=O)n3)cc2Cl)CC1 (centres unmarked) [compound 202, N4-(2-Carboxamidocyclopentyl)-N2-[3-chloro-4-(4-methylpiperazino)phenyl]-5-fluoro-2,4-pyrimidinediamine] | 6.00 to 7.00 | 6.00 to 7.00 | – | –
Cc1cc(Nc2ncc(F)c(NC3CCCC3C(N)=O)n2)cc(C)c1O (stereo not drawn) [compound 213, (cis)-N4-(2-Carboxamidocyclopent-1-yl)-N2-(3,5-dimethyl-4-hydroxyphenyl)-5-fluoro-2,4-pyrimidinediamine] | 6.00 to 7.00 | 6.00 to 7.00 | – | –

Next, values leading:

pIC50 (A549 (lung carcinoma); [2]) | pIC50 [1, 3] | pIC50 (A549 (lung carcinoma); [4]) | pIC50 [1, 5] | Structure (SMILES)
≥ 7.00 | ≥ 7.00 | – | – | COCc1cc(Nc2ncc(F)c(NC3C4C=CC(C4)C3C(N)=O)n2)ccc1N1CCN(C)CC1 (racemic) [compound 235, Racemic-(2-exo,3-exo)-N4-(3-aminocarbonylbicyclo[2.2.1]hept-5-en-2-yl)-5-fluoro-N2-[3-methoxymethyl-4-(4-methylpiperazin-1-yl)phenyl)-2,4-pyrimidinediamine]
– | – | ≥ 7.00 | ≥ 7.00 | CS(=O)(=O)N1CCc2cc(Nc3ncc(F)c(NC4C5CCC(C5)C4C(=O)NC4CC4)n3)ccc21 (racemic) [compound 180, Racemic-(2-exo,3-exo)-N4-[3-cyclopropylaminocarbonylbicyclo[2.2.1]hept-2-yl)-5-fluoro-N2-[1-methylsulfonyl-2,3-dihydro-indol-5-yl]-2,4-pyrimidinediamine]
– | – | 6.00 to 7.00 | 5.00 to 6.00 | Cc1cc(Nc2ncc(F)c(N[C@H]3CCC[C@H]3C(=O)NCC3CC3)n2)ccc1N1CCN(C)CC1 (racemic) [compound 158, Racemic-cis-N4-[2-(N-cyclopropylmethyl)aminocarbonylcyclopent-1-yl]-5-fluoro-N2-[4-(4-methylpiperazin-1-yl)-3-methylphenyl]-2,4-pyrimidinediamine]
5.00 to 6.00 | 5.00 to 6.00 | – | – | Cc1cc(Nc2ncc(F)c(N[C@H]3C=CCC[C@H]3C(N)=O)n2)ccc1N1CCN(C)CC1 (racemic) [compound 227, Racemic-cis-N4-(2-aminocarbonylcyclohex-5-ene-1-yl)-5-fluoro-N2-[3-methyl-4-(4-methylpiperazin-1-yl)phenyl]-2,4-pyrimidinediamine]
≥ 7.00 | ≥ 7.00 | – | – | Cc1cc(Nc2ncc(F)c(NC3C4CCC(C4)C3C(=O)NC3CC3)n2)ccc1N1CCN(C)CC1 (racemic) [compound 252, Racemic-(2-exo,3-exo)-N4-(3-N-cyclopropylaminocarbonylbicyclo[2.2.1]hept-2-yl)-5-fluoro-N2-[3-methyl-4-(4-methylpiperazin-1-yl)phenyl]-2,4-pyrimidinediamine]
5.00 to 6.00 | 5.00 to 6.00 | – | – | CN1CCN(C(=O)CCCc2ccc(Nc3ncc(F)c(N[C@H]4CCC[C@H]4C(N)=O)n3)cc2)CC1 (racemic) [compound 278, Racemic-cis-N4-(2-aminocarbonylcyclopent-1-yl)-5-fluoro-N2-{4-[(4-methylpiperazin-1-yl)-butan-1-one-4-yl]phenyl}-2,4-pyrimidinediamine]
– | – | 5.00 to 6.00 | 5.00 to 6.00 | NC(=O)[C@@H]1CCC[C@@H]1Nc1nc(Nc2ccc3c(c2)NCC3)ncc1F (racemic) [compound 156, Racemic-cis-N4-(2-aminocarbonylcyclopent-1-yl)-N2-(2,3-dihydroindol-6-yl)-5-fluoro-2,4-pyrimidinediamine]
– | – | ≥ 7.00 | ≥ 7.00 | Cc1ccc(Nc2ncc(F)c(NC3C4C=CC(C4)C3C(N)=O)n2)cc1OCCN1CCOCC1 (racemic) [compound 104, Racemic-(2-exo, 3-exo)-N4-(3-aminocarbonylbicyclo[2.2.1]hept-5-en-2-yl)-5-fluoro-N2-[4-methyl-3-(N-morpholinyl)-2-ethyleneoxyphenyl]-2,4-pyrimidinediamine]
– | – | ≥ 7.00 | ≥ 7.00 | CCNC(=O)C1C2C=CC(C2)C1Nc1nc(Nc2ccc3c(c2)OCCN3CCN(C)C)ncc1F (racemic) [compound 184, Racemic-(2-exo,3-exo)-N4-[3-N-ethylminocarbonylbicyclo[2.2.1]hept-5-en-2-yl)-5-fluoro-N2-{1-[2-(dimethylamino)ethyl]-3,4-dihydro-4H-benz[1,4]oxazin-6-yl}-2,4-pyrimidinediamine]
– | – | ≥ 7.00 | ≥ 7.00 | CN1CCC(Oc2ccc(Nc3ncc(F)c(N[C@H]4[C@@H](C(N)=O)[C@@H]5C=C[C@H]4C5)n3)cc2C(F)(F)F)CC1 [compound 151, (1R,2R,3S,4S)-N4-(3-Aminocarbonylbicyclo[2.2.1]hept-5-en-2-yl)-5-fluoro-N2-[4-(1-methylpiperidin-4-yloxy)-3-trifluoromethylphenyl)-2,4-pyrimidinediamine]
6.00 to 7.00 | 6.00 to 7.00 | – | – | CN1CCN(c2cccc(Nc3ncc(F)c(NC4CCCC4C(N)=O)n3)c2)CC1 (centres unmarked) [compound 195]
≥ 7.00 | 6.00 to 7.00 | – | – | NC(=O)[C@@H]1[C@H](Nc2nc(Nc3ccc(C4CCNCC4)cc3)ncc2F)[C@H]2C=C[C@@H]1C2 [compound 273, (1R,2R,3S,4S)-N4-(3-Aminocarbonylbicyclo[2.2.1]hept-5-en-2-yl)-5-fluoro-N2-[4-(piperidin-4-yl)phenyl]-2,4-pyrimidinediamine]
